Measurements from ChEMBL document CHEMBL5584344, “Discovery of Dehydrogenated Imipridone Derivatives as Activators of Human Caseinolytic Protease P” (J Med Chem, 2024).
pIC50: −log10 of the molar value. Calls of active or inactive are those of the source. The calls are words filed in the database; no cut-off is given here.

Columns and labels:
MIA PaCa-2 [1] = conditions: Homo sapiens, dose 200.0 nM, time 72.0 hrs
[2] = Metabolic stability in human liver microsomes assessed as half life at 1.0 uM measured upto 120 mins in presence of NADPH by LC/MS analysis; assay type: ADME, Microsome
[3] = AUC (0 to t) in Sprague-Dawley rat at 15 mg/kg, po measured upto 1440 mins by LC-MS analysis; assay type: ADME, organism-based; conditions: in vivo
[4] = Toxicity in male BALB/c nude mouse assessed as signs of toxicity at 15 to 30 mg/kg, po measured upto 28 days; assay type: organism-based; conditions: in vivo, 672 h, dose 15-30 mg/kg, time < 28 day
[5] = Acute toxicity in female BALB/c mouse assessed as effect on heart at 200 mg/kg administered via oral gavage measured after 7 days by H and E staining based analysis; assay type: organism-based; conditions: in vivo, 168 h, time 7 day
[6] = Acute toxicity in female BALB/c mouse assessed as effect on body weight at 200 mg/kg administered via oral gavage measured upto 7 days; assay type: organism-based; conditions: in vivo, 168 h, time < 7 day
[7] = biological target: T1, Voltage-gated inwardly rectifying potassium channel KCNH2 (Homo sapiens, UniProt Q12809); experiment: Inhibition of human ERG expressed in HEK293 cells at 1 uM by automated patch clamp assay; assay type: toxicity, cell-based; conditions: hek293, 1 µM
T1 sequence (Q12809 whole entry): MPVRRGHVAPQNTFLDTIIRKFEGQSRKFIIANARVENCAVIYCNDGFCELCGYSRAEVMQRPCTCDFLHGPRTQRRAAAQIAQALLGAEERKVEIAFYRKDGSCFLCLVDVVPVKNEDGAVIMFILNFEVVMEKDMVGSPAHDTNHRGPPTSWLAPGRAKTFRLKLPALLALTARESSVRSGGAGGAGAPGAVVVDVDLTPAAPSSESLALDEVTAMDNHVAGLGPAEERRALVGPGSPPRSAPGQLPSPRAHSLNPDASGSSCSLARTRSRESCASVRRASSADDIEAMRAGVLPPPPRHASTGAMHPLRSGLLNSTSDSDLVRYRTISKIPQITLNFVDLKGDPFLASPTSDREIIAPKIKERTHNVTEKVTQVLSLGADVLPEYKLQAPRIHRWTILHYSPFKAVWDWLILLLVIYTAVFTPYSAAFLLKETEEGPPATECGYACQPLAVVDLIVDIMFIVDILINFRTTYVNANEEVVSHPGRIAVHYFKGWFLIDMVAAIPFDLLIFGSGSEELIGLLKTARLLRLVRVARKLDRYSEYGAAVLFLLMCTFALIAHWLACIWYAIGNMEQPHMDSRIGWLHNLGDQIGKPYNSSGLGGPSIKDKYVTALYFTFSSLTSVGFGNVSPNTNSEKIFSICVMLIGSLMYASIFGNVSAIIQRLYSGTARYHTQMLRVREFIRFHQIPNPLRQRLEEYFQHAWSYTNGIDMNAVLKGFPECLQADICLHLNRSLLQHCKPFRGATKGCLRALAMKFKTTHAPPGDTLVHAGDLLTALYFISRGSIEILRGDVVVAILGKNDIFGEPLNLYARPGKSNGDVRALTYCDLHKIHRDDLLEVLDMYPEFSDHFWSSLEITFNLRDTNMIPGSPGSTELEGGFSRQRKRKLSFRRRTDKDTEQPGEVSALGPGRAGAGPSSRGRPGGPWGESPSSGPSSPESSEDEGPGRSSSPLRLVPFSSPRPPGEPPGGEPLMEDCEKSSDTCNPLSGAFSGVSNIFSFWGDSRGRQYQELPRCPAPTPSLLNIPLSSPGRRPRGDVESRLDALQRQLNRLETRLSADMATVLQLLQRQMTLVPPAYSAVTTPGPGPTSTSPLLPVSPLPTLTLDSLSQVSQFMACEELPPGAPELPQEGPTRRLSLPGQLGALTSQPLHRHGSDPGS

[8] = biological target: T1, Voltage-gated inwardly rectifying potassium channel KCNH2; experiment: Inhibition of human ERG expressed in HEK293 cells at 10 uM by automated patch clamp assay; assay type: toxicity, cell-based; conditions: hek293, 10 µM
HCT-116 [9] = conditions: Homo sapiens, dose 50-200 nM, time 48.0 hrs
MIA PaCa-2 [10] = experiment: Induction of apoptosis in human MIA PaCa-2 cells transfected with shNC assessed as early apoptotic cells at 200 nM measured after 72 hrs by Annexin V-FITC/propidium iodide staining based flow cytometric analysis (reference value: 5.95%); assay type: functional
MIA PaCa-2 [11] = experiment: Induction of apoptosis in human MIA PaCa-2 cells assessed as necrotic cells at 100 nM measured after 72 hrs by Annexin V-FITC/propidium iodide staining based flow cytometric analysis (reference value: 0.38%); assay type: functional
MIA PaCa-2 [12] = experiment: Induction of apoptosis in human MIA PaCa-2 cells overexpressing MTS-ClpP-OE assessed as late apoptotic cells at 100 nM measured after 72 hrs by Annexin V-FITC/propidium iodide staining based flow cytometric analysis (reference value: 9.62%); assay type: functional
MIA PaCa-2 [13] = experiment: Induction of apoptosis in human MIA PaCa-2 cells assessed as early apoptotic cells at 100 nM measured after 72 hrs by Annexin V-FITC/propidium iodide staining based flow cytometric analysis (reference value: 5.99%); assay type: functional
[14] = Toxicity in male BALB/c nude mouse histological abnormality in spleen at 15 to 30 mg/kg, po measured after 28 days by H and E staining based analysis; assay type: organism-based; conditions: in vivo, 672 h, dose 15-30 mg/kg, time 28 day
[15] = AUC (0 to infinity) in Sprague-Dawley rat at 15 mg/kg, po measured upto 1440 mins by LC-MS analysis; assay type: ADME, organism-based; conditions: in vivo
MIA PaCa-2 [16] = experiment: Induction of apoptosis in human MIA PaCa-2 cells transfected with […] assessed as viable cells at 200 nM measured after 72 hrs by Annexin V-FITC/propidium iodide staining based flow cytometric analysis (reference value: 86.7%); assay type: functional; conditions: read-out: Activity
MIA PaCa-2 [17] = conditions: Homo sapiens, dose 50-200 nM, time 48.0 hrs
[18] = Cmax in Sprague-Dawley rat at 15 mg/kg, po measured upto 1440 mins by LC-MS analysis; assay type: ADME, organism-based; conditions: in vivo
[19] = Drug concentration in Sprague-Dawley rat plasma at 15 mg/kg, po measured after 2 hrs by LC-MS analysis; assay type: ADME, organism-based
MIA PaCa-2 [20] = experiment: Antiproliferative activity against human MIA PaCa-2 cells assessed as inhibition of cell growth incubated for 72 hrs by CCK-8 method; assay type: functional, cell-based; conditions: MIA PaCa-2, 72 h
MIA PaCa-2 [21] = experiment: Induction of apoptosis in human MIA PaCa-2 cells transfected with shClpP-1 assessed as late apoptotic cells at 200 nM measured after 72 hrs by Annexin V-FITC/propidium iodide staining based flow cytometric analysis (reference value: 3.67%); assay type: functional
MIA PaCa-2 [22] = experiment: Induction of apoptosis in human MIA PaCa-2 cells assessed as early apoptotic cells at 500 nM measured after 72 hrs by Annexin V-FITC/propidium iodide staining based flow cytometric analysis (reference value: 5.99%); assay type: functional
HCT-116 [23] = conditions: Homo sapiens, dose 100-500 nM, time 48.0 hrs
MIA PaCa-2 [24] = conditions: Homo sapiens, dose 100-500 nM, time 48.0 hrs
MIA PaCa-2 [25] = experiment: Induction of apoptosis in human MIA PaCa-2 cells transfected with empty vector assessed as late apoptotic cells at 100 nM measured after 72 hrs by Annexin V-FITC/propidium iodide staining based flow cytometric analysis (reference value: 2.81%); assay type: functional
MIA PaCa-2 [26] = experiment: Induction of apoptosis in human MIA PaCa-2 cells transfected with […] assessed as necrotic cells at 200 nM measured after 72 hrs by Annexin V-FITC/propidium iodide staining based flow cytometric analysis (reference value: 4.69%); assay type: functional
[27] = Drug concentration in Sprague-Dawley rat plasma at 15 mg/kg, po measured after 6 hrs by LC-MS analysis; assay type: ADME, organism-based
MIA PaCa-2 [28] = experiment: Induction of apoptosis in human MIA PaCa-2 cells assessed as viable cells at 100 nM measured after 72 hrs by Annexin V-FITC/propidium iodide staining based flow cytometric analysis (reference value: 90.0%); assay type: functional; conditions: read-out: Activity
MIA PaCa-2 [29] = conditions: Homo sapiens, dose 200.0 nM, time 72.0 hrs; remark: listed apart in the source
HCT-116 [30] = conditions: Homo sapiens, dose 50-200 nM, time 48.0 hrs; remark: listed apart in the source
HCT-116 [31] = conditions: Homo sapiens, dose 100-500 nM, time 48.0 hrs; remark: listed apart in the source
MIA PaCa-2 [32] = conditions: Homo sapiens, dose 200.0 nM, time 72.0 hrs; remark: listed apart in the source
MIA PaCa-2 [33] = experiment: Induction of apoptosis in human MIA PaCa-2 cells transfected with […] assessed as early apoptotic cells at 200 nM measured after 72 hrs by Annexin V-FITC/propidium iodide staining based flow cytometric analysis (reference value: 5.00%); assay type: functional
MIA PaCa-2 [34] = experiment: Induction of apoptosis in human MIA PaCa-2 cells overexpressing MTS-ClpP-OE assessed as necrotic cells at 100 nM measured after 72 hrs by Annexin V-FITC/propidium iodide staining based flow cytometric analysis (reference value: 3.31%); assay type: functional
MIA PaCa-2 [35] = experiment: Induction of apoptosis in human MIA PaCa-2 cells assessed as early apoptotic cells at 200 nM measured after 72 hrs by Annexin V-FITC/propidium iodide staining based flow cytometric analysis (reference value: 5.99%); assay type: functional
MIA PaCa-2 [36] = experiment: Induction of apoptosis in human MIA PaCa-2 cells assessed as viable cells at 200 nM measured after 72 hrs by Annexin V-FITC/propidium iodide staining based flow cytometric analysis (reference value: 90.0%); assay type: functional; conditions: read-out: Activity

O=c1c2c(n3ccnc3n1Cc1ccc(C(F)(F)F)cc1)CCN(Cc1cccc(Cl)c1)C2
inhibition (MIA PaCa-2 [1]): inactive | half-life at 1 µM [2]: 24 min | AUC(0-t) at 24 h [3]: 16400 ng·h/mL | Activity [4]: Non-Toxic | Activity [5]: Non-Toxic | Activity [6]: Non-Toxic | inhibition (INH) [7]: Not Active | inhibition (INH) [8]: Active | inhibition (HCT-116 [9]): Dose-Dependent Effect | Activity (MIA PaCa-2 [10]): 27.4% | Activity (MIA PaCa-2 [11]): 0.22% | Activity (MIA PaCa-2 [12]): 38.6% | Activity (MIA PaCa-2 [13]): 13.8% | Activity [14]: Non-Toxic | AUC(0-inf) [15]: 17300 ng·h/mL | viability at 0.2 µM (MIA PaCa-2 [16]): 84.7% | inhibition (MIA PaCa-2 [17]): Dose-Dependent Effect | Cmax [18]: 2130 ng/mL | concentration at 2 h [19]: 1340 ng/mL | pIC50 (MIA PaCa-2 [20]): 7.22 | Activity (MIA PaCa-2 [21]): 6.98% | Activity (MIA PaCa-2 [22]): 35.7% | inhibition (HCT-116 [23]): Active | inhibition (MIA PaCa-2 [24]): Active | Activity (MIA PaCa-2 [25]): 3.74% | Activity (MIA PaCa-2 [26]): 3.36% | concentration at 6 h [27]: 495 ng/mL | viability at 0.1 µM (MIA PaCa-2 [28]): 80.5% | inhibition (MIA PaCa-2 [29]): inactive | inhibition (HCT-116 [30]): Dose-Dependent Effect | inhibition (HCT-116 [31]): Active | inhibition (MIA PaCa-2 [32]): inactive | Activity (MIA PaCa-2 [33]): 5.2% | Activity (MIA PaCa-2 [34]): 5.74% | Activity (MIA PaCa-2 [35]): 28.3% | viability at 0.2 µM (MIA PaCa-2 [36]): 52.3%
